# Legend:
# Test in all cases: relative viability (nuclei count vs DMSO), 5 days (fraction); higher = more cells survive
# Bexarotene + Pemetrexed = compound: C=C(c1ccc(C(=O)O)cc1)c1cc2c(cc1C)C(C)(C)CCC2(C)C [Bexarotene] + Nc1nc2[nH]cc(CCc3ccc(C(=O)N[C@@H](CCC(=O)O)C(=O)O)cc3)c2c(=O)[nH]1 [Pemetrexed] (partner 0.2 µM)
# Method in brief: (§1)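 Five library-drug doses in √10 steps were combined with a fixed anchor-drug dose, or a single drug was given alone, by pin tool to lung cancer cell lines in 1536-well plates the day after seeding. Nuclei were stained and counted after 5 days. Relative viability is the nuclei count in treated wells over that in vehicle wells, taken as the median of duplicate plates.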
# Bexarotene + Lapatinib = compound: C=C(c1ccc(C(=O)O)cc1)c1cc2c(cc1C)C(C)(C)CCC2(C)C [Bexarotene] + CS(=O)(=O)CCNCc1ccc(-c2ccc3ncnc(Nc4ccc(OCc5cccc(F)c5)c(Cl)c4)c3c2)o1 [Lapatinib] (partner 2 µM)
# Method in brief: as §1
# Bexarotene + Dasatinib = compound: C=C(c1ccc(C(=O)O)cc1)c1cc2c(cc1C)C(C)(C)CCC2(C)C [Bexarotene] + Cc1nc(Nc2ncc(C(=O)Nc3c(C)cccc3Cl)s2)cc(N2CCN(CCO)CC2)n1 [Dasatinib] (partner 0.075 µM)
# Method in brief: as §1
# Bexarotene + Crizotinib = compound: C=C(c1ccc(C(=O)O)cc1)c1cc2c(cc1C)C(C)(C)CCC2(C)C [Bexarotene] + C[C@@H](Oc1cc(-c2cnn(C3CCNCC3)c2)cnc1N)c1c(Cl)ccc(F)c1Cl [Crizotinib] (partner 1 µM)
# Method in brief: as §1
cell line,measurement,setting,value
NCI-H1355,relative viability,Bexarotene + Pemetrexed; first compound 0.08 µM,1.14
same,relative viability,Bexarotene + Pemetrexed; first compound 0.253 µM,1.15
same,relative viability,Bexarotene + Pemetrexed; first compound 0.8 µM,0.983
same,relative viability,Bexarotene + Pemetrexed; first compound 2.53 µM,1.13
same,relative viability,Bexarotene + Pemetrexed; first compound 8 µM,1.01
same,relative viability,Bexarotene + Lapatinib; first compound 0.08 µM,1.02
same,relative viability,Bexarotene + Lapatinib; first compound 0.253 µM,1.1
same,relative viability,Bexarotene + Lapatinib; first compound 0.8 µM,0.898
same,relative viability,Bexarotene + Lapatinib; first compound 2.53 µM,1.1
same,relative viability,Bexarotene + Lapatinib; first compound 8 µM,0.936
same,relative viability,Bexarotene + Dasatinib; first compound 0.08 µM,0.744
same,relative viability,Bexarotene + Dasatinib; first compound 0.253 µM,0.814
same,relative viability,Bexarotene + Dasatinib; first compound 0.8 µM,0.55
same,relative viability,Bexarotene + Dasatinib; first compound 2.53 µM,0.627
same,relative viability,Bexarotene + Dasatinib; first compound 8 µM,0.707
same,relative viability,Bexarotene + Crizotinib; first compound 0.08 µM,1.14
same,relative viability,Bexarotene + Crizotinib; first compound 0.253 µM,1.11
same,relative viability,Bexarotene + Crizotinib; first compound 0.8 µM,1.03
same,relative viability,Bexarotene + Crizotinib; first compound 2.53 µM,1.14
same,relative viability,Bexarotene + Crizotinib; first compound 8 µM,1.13
NCI-H1975,relative viability,Bexarotene + Pemetrexed; first compound 0.08 µM,0.327
same,relative viability,Bexarotene + Pemetrexed; first compound 0.253 µM,0.331
same,relative viability,Bexarotene + Pemetrexed; first compound 0.8 µM,0.305
same,relative viability,Bexarotene + Pemetrexed; first compound 2.53 µM,0.334
same,relative viability,Bexarotene + Pemetrexed; first compound 8 µM,0.323
same,relative viability,Bexarotene + Lapatinib; first compound 0.08 µM,1.25
same,relative viability,Bexarotene + Lapatinib; first compound 0.253 µM,1.01
same,relative viability,Bexarotene + Lapatinib; first compound 0.8 µM,1
same,relative viability,Bexarotene + Lapatinib; first compound 2.53 µM,1.1
same,relative viability,Bexarotene + Lapatinib; first compound 8 µM,0.988
same,relative viability,Bexarotene + Dasatinib; first compound 0.08 µM,0.468
same,relative viability,Bexarotene + Dasatinib; first compound 0.253 µM,0.335
same,relative viability,Bexarotene + Dasatinib; first compound 0.8 µM,0.391
same,relative viability,Bexarotene + Dasatinib; first compound 2.53 µM,0.335
same,relative viability,Bexarotene + Dasatinib; first compound 8 µM,0.375
same,relative viability,Bexarotene + Crizotinib; first compound 0.08 µM,1.01
same,relative viability,Bexarotene + Crizotinib; first compound 0.253 µM,1.02
same,relative viability,Bexarotene + Crizotinib; first compound 0.8 µM,1.05
same,relative viability,Bexarotene + Crizotinib; first compound 2.53 µM,1.08
same,relative viability,Bexarotene + Crizotinib; first compound 8 µM,1.11
LK-2,relative viability,Bexarotene + Pemetrexed; first compound 0.08 µM,0.353
same,relative viability,Bexarotene + Pemetrexed; first compound 0.253 µM,0.292
same,relative viability,Bexarotene + Pemetrexed; first compound 0.8 µM,0.285
same,relative viability,Bexarotene + Pemetrexed; first compound 2.53 µM,0.275
same,relative viability,Bexarotene + Pemetrexed; first compound 8 µM,0.238
same,relative viability,Bexarotene + Lapatinib; first compound 0.08 µM,1.33
same,relative viability,Bexarotene + Lapatinib; first compound 0.253 µM,1
same,relative viability,Bexarotene + Lapatinib; first compound 0.8 µM,1.04
same,relative viability,Bexarotene + Lapatinib; first compound 2.53 µM,0.968
same,relative viability,Bexarotene + Lapatinib; first compound 8 µM,0.961
same,relative viability,Bexarotene + Dasatinib; first compound 0.08 µM,0.314
same,relative viability,Bexarotene + Dasatinib; first compound 0.253 µM,0.474
same,relative viability,Bexarotene + Dasatinib; first compound 0.8 µM,0.39
same,relative viability,Bexarotene + Dasatinib; first compound 8 µM,0.465
same,relative viability,Bexarotene + Crizotinib; first compound 0.08 µM,0.309
same,relative viability,Bexarotene + Crizotinib; first compound 0.253 µM,0.213
same,relative viability,Bexarotene + Crizotinib; first compound 0.8 µM,0.206
same,relative viability,Bexarotene + Crizotinib; first compound 2.53 µM,0.221
same,relative viability,Bexarotene + Crizotinib; first compound 8 µM,0.247
NCI-H661,relative viability,Bexarotene + Pemetrexed; first compound 0.08 µM,1.05
same,relative viability,Bexarotene + Pemetrexed; first compound 0.253 µM,0.91
same,relative viability,Bexarotene + Pemetrexed; first compound 0.8 µM,0.892
same,relative viability,Bexarotene + Pemetrexed; first compound 2.53 µM,0.872
same,relative viability,Bexarotene + Pemetrexed; first compound 8 µM,0.869
same,relative viability,Bexarotene + Lapatinib; first compound 0.08 µM,0.432
same,relative viability,Bexarotene + Lapatinib; first compound 0.253 µM,0.554
same,relative viability,Bexarotene + Lapatinib; first compound 0.8 µM,0.477
same,relative viability,Bexarotene + Lapatinib; first compound 2.53 µM,0.516
same,relative viability,Bexarotene + Lapatinib; first compound 8 µM,0.513
same,relative viability,Bexarotene + Dasatinib; first compound 0.08 µM,1.14
same,relative viability,Bexarotene + Dasatinib; first compound 0.253 µM,0.89
same,relative viability,Bexarotene + Dasatinib; first compound 0.8 µM,0.837
same,relative viability,Bexarotene + Dasatinib; first compound 2.53 µM,0.838
same,relative viability,Bexarotene + Dasatinib; first compound 8 µM,0.801
same,relative viability,Bexarotene + Crizotinib; first compound 0.08 µM,0.866
same,relative viability,Bexarotene + Crizotinib; first compound 0.253 µM,1.13
same,relative viability,Bexarotene + Crizotinib; first compound 0.8 µM,1.02
same,relative viability,Bexarotene + Crizotinib; first compound 2.53 µM,0.96
same,relative viability,Bexarotene + Crizotinib; first compound 8 µM,1.04
NCI-H441,relative viability,Bexarotene + Pemetrexed; first compound 0.08 µM,0.268
same,relative viability,Bexarotene + Pemetrexed; first compound 0.253 µM,0.319
same,relative viability,Bexarotene + Pemetrexed; first compound 0.8 µM,0.26
same,relative viability,Bexarotene + Pemetrexed; first compound 2.53 µM,0.257
same,relative viability,Bexarotene + Pemetrexed; first compound 8 µM,0.249
same,relative viability,Bexarotene + Dasatinib; first compound 0.08 µM,0.857
same,relative viability,Bexarotene + Dasatinib; first compound 0.253 µM,0.701
same,relative viability,Bexarotene + Dasatinib; first compound 0.8 µM,1
same,relative viability,Bexarotene + Dasatinib; first compound 2.53 µM,0.717
same,relative viability,Bexarotene + Dasatinib; first compound 8 µM,0.579
same,relative viability,Bexarotene + Crizotinib; first compound 0.08 µM,0.742
same,relative viability,Bexarotene + Crizotinib; first compound 0.253 µM,0.708
same,relative viability,Bexarotene + Crizotinib; first compound 0.8 µM,0.94
same,relative viability,Bexarotene + Crizotinib; first compound 2.53 µM,0.635
same,relative viability,Bexarotene + Crizotinib; first compound 8 µM,0.738
EBC-1,relative viability,Bexarotene + Lapatinib; first compound 0.08 µM,0.231
same,relative viability,Bexarotene + Lapatinib; first compound 0.253 µM,0.232
same,relative viability,Bexarotene + Lapatinib; first compound 0.8 µM,0.22
same,relative viability,Bexarotene + Lapatinib; first compound 2.53 µM,0.192
same,relative viability,Bexarotene + Lapatinib; first compound 8 µM,0.209
same,relative viability,Bexarotene + Crizotinib; first compound 0.08 µM,0.196
same,relative viability,Bexarotene + Crizotinib; first compound 0.253 µM,0.212
same,relative viability,Bexarotene + Crizotinib; first compound 0.8 µM,0.237
same,relative viability,Bexarotene + Crizotinib; first compound 2.53 µM,0.217
same,relative viability,Bexarotene + Crizotinib; first compound 8 µM,0.192
HCC-44,relative viability,Bexarotene + Pemetrexed; first compound 0.08 µM,0.694
same,relative viability,Bexarotene + Pemetrexed; first compound 0.253 µM,0.738
same,relative viability,Bexarotene + Pemetrexed; first compound 0.8 µM,0.658
same,relative viability,Bexarotene + Pemetrexed; first compound 2.53 µM,0.741
same,relative viability,Bexarotene + Pemetrexed; first compound 8 µM,0.65
same,relative viability,Bexarotene + Lapatinib; first compound 0.08 µM,1.06
same,relative viability,Bexarotene + Lapatinib; first compound 0.253 µM,1.06
same,relative viability,Bexarotene + Lapatinib; first compound 0.8 µM,0.919
same,relative viability,Bexarotene + Lapatinib; first compound 2.53 µM,0.924
same,relative viability,Bexarotene + Lapatinib; first compound 8 µM,0.879
same,relative viability,Bexarotene + Crizotinib; first compound 0.08 µM,0.766
same,relative viability,Bexarotene + Crizotinib; first compound 0.253 µM,0.82
same,relative viability,Bexarotene + Crizotinib; first compound 0.8 µM,0.824
same,relative viability,Bexarotene + Crizotinib; first compound 2.53 µM,0.782
same,relative viability,Bexarotene + Crizotinib; first compound 8 µM,0.776
SW 900,relative viability,Bexarotene + Pemetrexed; first compound 0.08 µM,0.509
same,relative viability,Bexarotene + Pemetrexed; first compound 0.253 µM,0.465
same,relative viability,Bexarotene + Pemetrexed; first compound 0.8 µM,0.456
same,relative viability,Bexarotene + Pemetrexed; first compound 2.53 µM,0.454
same,relative viability,Bexarotene + Pemetrexed; first compound 8 µM,0.477
same,relative viability,Bexarotene + Dasatinib; first compound 0.08 µM,0.703
same,relative viability,Bexarotene + Dasatinib; first compound 0.253 µM,0.55
same,relative viability,Bexarotene + Dasatinib; first compound 0.8 µM,0.505
same,relative viability,Bexarotene + Dasatinib; first compound 2.53 µM,0.544
same,relative viability,Bexarotene + Dasatinib; first compound 8 µM,0.772

# — the supplement of paper PMC10307832
